{"source": "patent US10660911B2", "about": "“Proton-motive force stimulation to potentiate aminoglycoside antibiotics against persistent bacteria” (TRUSTEES OF BOSTON UNIVERSITY, priority 2011, dated 2020)", "key": {"E. coli persisters": {"tested_on": "E. coli persisters", "experiment": "E. coli persister assay (survival by c.f.u. per ml)", "type": "cell-based, Escherichia coli (K12 EMG2)", "conditions": "for killing of E. coli persisters by antibiotic without metabolite: antibiotic alone, no carbon source; for killing of E. coli persisters by antibiotic in the presence of mannitol: antibiotic plus 10 mM mannitol; for reduction of persister viability (killing by gentamicin induced by metabolite) / potentiation of gentamicin against E. coli persisters by metabolite: metabolite plus 10 μg/mL gentamicin; for reduction of persister viability (killing by gentamicin induced by metabolite) / potentiation of gentamicin against ΔndhΔnuoI strain persisters / potentiation of gentamicin against E. coli persisters by metabolite: 2 h; for reduction of persister viability (killing by gentamicin induced by metabolite): M9 minimal media; for potentiation of gentamicin against ΔndhΔnuoI strain persisters: ΔndhΔnuoI E. coli, gentamicin plus metabolite", "procedure": "(§1) For E. coli (K12 EMG2 strain) persister assays, as described herein, samples were grown to stationary phase in Luria-bertani (LB) broth. Cultures were then treated for 4 hours with 5 μg/mL ofloxacin. […] Samples were then washed with 10 mL 1× filtered PBS and re-suspended in M9 minimal media. Metabolites (Glucose, mannitol, fructose, and pyruvate) and aminoglycoside antibiotics (10 μg/mL gentamicin, 50 μg/mL streptomycin, and 30 μg/mL kanamycin) were added, and samples were incubated at 37° C., 300 RPM, and 80% humidity. Resuspension of samples in defined minimal media allowed precise and specific testing of the effect of different metabolites on persister viability, without the possible confounding factors that a more complex media would present. For S. aureus persister (ATCC 25923 strain) experiments, cells were grown at 37° C. and 300 RPM in LB broth to an OD600 of 0.3. Cells were then diluted 1:1000 in 25 mL LB and grown for 16 hours at 37° C. and 300 RPM in 250 mL flasks. Cultures were treated with carbon source and antibiotic. Previous work has shown that, approximately all, stationary phase S. aureus cells are persistent.\nAt specified time points, 10 μL aliquots of samples were removed, serially diluted, and spot-plated onto LB agar plates to determine colony forming units/mL (CFU/mL). Only dilutions that yielded between 10-100 colonies were counted. Survival was determined by dividing a replicate's CFU/mL at each time point by the initial CFU/mL for the replicate.\nGiven the dormancy of bacterial persisters and the known energy requirement for aminoglycoside activity^16, we tested whether metabolic stimulation could potentiate the efficacy of aminoglycosides against bacterial persisters. To test this, we screened metabolites for their ability to potentiate aminoglycosides against E. coli persisters. We selected carbon sources to maximize coverage of glycolysis, the pentose-phosphate pathway (PPP) and the Entner-Doudoroff pathway (EDP) (FIGS. 1A, 1B). Bacterial persisters were isolated (as described under “Methods”), re-suspended in minimal media supplemented with individual metabolites and then treated for 2 hours with the aminoglycoside gentamicin.\nThe following concentrations of carbon sources were used in this study: 10 mM glucose, 10 mM mannitol, 10 mM fructose, 20 mM glycerol, 30 mM glycolate, 10 mM galactarate, 20 mM pyruvate, 10 mM gluconate, 12 mM arabinose and 12 mM ribose. 10 mM acetate was used as a supplement and 30 mM acetate was used as a potentiating metabolite in control experiments. Carbon sources were purchased from Sigma or Fisher. In E. coli persister assays, samples were re-suspended in M9 minimal media salts plus a carbon source. In all experiments using CCCP, samples were pre-treated for 5 min with the proton ionophore before antibiotic addition.\nFor E. coli persister assays, samples were grown to stationary phase as described above. Cultures were then treated for 4 h with 5 μg ml^−1 ofloxacin in the above-stated growth conditions. […] Samples were then washed with 10 ml of 1× filtered PBS and re-suspended in M9 minimal media. Carbon sources and antibiotics were added and samples were incubated at 37° C. 300 r.p.m. and 80% humidity. Re-suspension of samples in defined minimal media allowed us to test the effects of different carbon sources on persister viability precisely and specifically, without the possible confounding factors that a more complex medium would present. For S. aureus persister experiments, cells were grown at 37° C. and 300 r.p.m. in LB broth to an OD600 of 0.3. Cells were then diluted 1:1,000 in 25 ml LB and grown for 16 h at 37° C. and 300 r.p.m. in 250 ml flasks before treatment with a carbon source and antibiotic. Previous work has shown that almost all stationary-phase S. aureus cells are persistent^25.\nAt specified time points, 10-μl aliquots of samples were removed, serially diluted and spot-plated onto LB agar plates to determine colony-forming units per ml (c.f.u. ml^−1). […]"}, "[1]": {"tested_on": "uropathogenic E. coli biofilms", "experiment": "Mouse chronic urinary tract infection assay", "type": "in vivo, mice (BALB/c)", "conditions": "i.v. twice daily for 3 days; gentamicin 1 mg/kg, mannitol 1.5 g/kg", "procedure": "Female Charles River Balb/C mice (weighing 22-26 g) received surgical implantation in the urinary tract of 6 mm PESO catheter tubing that had been incubated in cultures of uropathogenic E. coli for 24 hours to form biofilms. Forty-eight hours after surgery, mice received no treatment or twice-daily, intravenous treatment with gentamicin (1 mg/Kg) or mannitol (1.5 g/Kg) and gentamicin (1 mg/Kg) for three days. Seven to eight mice were included in each group. Twenty-four hours after the last treatment, catheter tubing was extracted to determine biofilm viability and kidneys were removed to determine bacterial load.\nTo determine the clinical relevance of metabolic potentiation of aminoglycosides in vivo, we tested the ability of gentamicin in combination with mannitol to treat chronic, biofilm-associated infection in a mouse model. Catheters colonized with uropathogenic E. coli biofilms were implanted in the urinary tracts of mice (FIG. 3D). Two days after surgery, mice received either no treatment or intravenous treatment with gentamicin or gentamicin and mannitol for 3 days, after which the catheters were removed and biofilm viability was determined. Gentamicin alone had no effect, whereas gentamicin in combination with mannitol reduced the viability of the catheter biofilms by nearly 1.5 orders of magnitude (FIG. 3D). […]"}, "[2]": {"tested_on": "stationary-phase E. coli cells", "type": "cell-based, Escherichia coli", "procedure": "Given that aminoglycoside uptake is energy-dependent^16, we investigated whether the metabolic stimuli screened here could increase aminoglycoside uptake. We measured uptake by fluorescently labelling gentamicin with Texas red and analyzing cells by fluorescence-activated cell sorting (FACS). Cells were pre-incubated with metabolites for 30 min before a 5-min treatment with gentamicin-Texas red (FIG. 1D and FIG. 14).\nGentamicin-Texas red was made as previously described^27. At 4° C., 1 mg of Texas red (Invitrogen) was dissolved in 50 μl of high-quality anhydrous N,N-dimethylformamide. The dissolved Texas red was added slowly to 2.3 ml of 10 mg ml^−1 gentamicin solution in 100 mM K2CO3 at 4° C.\nUptake of gentamicin-Texas red induced by carbon sources in stationary-phase cells was determined by adding concentrated carbon sources (see section on media and growth conditions for concentrations) to stationary-phase cultures and incubating them for 30 min at 37° C., 300 r.p.m. and 80% humidity. Concentrated gentamicin-Texas red was then added to a final concentration of 10 μg ml^−1 and samples were incubated for 5 min. 100 μl of each sample was then washed with 1 ml of PBS and re-suspended in 1 ml of PBS. […] Samples were analysed on a BD FACS Aria II flow cytometer with the following settings: mCherry voltage, 650 V; FSC threshold, 1,000; recorded events, 100,000; gated-out mCherry events. <30."}, "S. aureus persisters": {"tested_on": "S. aureus persisters", "experiment": "S. aureus persister assay", "type": "cell-based, Staphylococcus aureus (ATCC 25923)", "procedure": "as §1, with “Previous work has shown that, approximately all, stationary phase S. aureus cells are persistent.” left out\nAt specified time points, 10-μl aliquots of samples were removed, serially diluted and spot-plated onto LB agar plates to determine colony-forming units per ml (c.f.u. ml^−1). Only dilutions that yielded 10-100 colonies were counted Survival was determined by dividing the c.f.u. ml^−1 of a sample at each time point by the initial c.f.u. ml^−1 for that sample."}}, "note": "“Also recorded” adds a separate entry of the source."}
{"compound": "CC1(C)S[C@@H]2[C@H](NC(=O)[C@H](N)c3ccccc3)C(=O)N2[C@H]1C(=O)O", "note": "[ampicillin]", "values": [{"measurement": "killing of E. coli persisters by antibiotic without metabolite", "setting": "E. coli persisters", "result": "none of the bactericidal antibiotics used in this study (ofloxacin, ampicillin, and gentamicin) caused killing of cells; also recorded: neither the β-lactam ampicillin nor the quinolone ofloxacin showed appreciable killing"}, {"measurement": "killing of E. coli persisters by antibiotic in the presence of mannitol", "setting": "E. coli persisters", "result": "neither the β-lactam ampicillin nor the quinolone ofloxacin showed appreciable killing"}]}
{"compound": "gentamicin", "values": [{"measurement": "killing of E. coli persisters by antibiotic without metabolite", "setting": "E. coli persisters", "result": "none of the bactericidal antibiotics used in this study (ofloxacin, ampicillin, and gentamicin) caused killing of cells; also recorded: No killing"}, {"measurement": "killing of E. coli persisters by antibiotic in the presence of mannitol", "setting": "E. coli persisters", "result": "rapidly eliminated"}, {"measurement": "reduction of viability of catheter biofilms", "setting": "[1]", "result": "no effect"}]}
{"compound": "N#CC(C#N)=NNc1cccc(Cl)c1", "note": "[CCCP, carbonyl cyanide m-chlorophenyl hydrazone]", "values": [{"measurement": "effect of CCCP on metabolite potentiation of gentamicin", "setting": "E. coli persisters; 20 μM CCCP pre-incubation, 10 μg/mL gentamicin plus carbon sources", "result": "abolish aminoglycoside potentiation by all of the carbon sources; also recorded: abolishes metabolite-enabled potentiation"}, {"measurement": "effect of CCCP on metabolite-induced gentamicin-Texas red uptake", "setting": "[2]; 20 μM CCCP, 10 μg/mL Gent-TR, 30 min on carbon source", "result": "suppressed the metabolite-induced uptake of aminoglycoside"}]}
{"compound": "O=C(O)CO", "note": "[glycolate]", "values": [{"measurement": "uptake of Texas Red probe", "setting": "[2]; 30 mM glycolate, stationary phase E. coli", "result": "affects the uptake of Texas Red probe"}]}
{"compound": "OC[C@@H](O)[C@@H](O)[C@H](O)[C@H](O)CO", "note": "[mannitol]", "values": [{"measurement": "reduction of persister viability (killing by gentamicin induced by metabolite)", "setting": "E. coli persisters", "result": "three orders of magnitude"}, {"measurement": "potentiation of gentamicin against ΔndhΔnuoI strain persisters", "setting": "E. coli persisters", "result": "not potentiated"}, {"measurement": "potentiation of gentamicin against S. aureus persisters by metabolite", "setting": "S. aureus persisters", "result": "little potentiation"}]}
{"compound": "O=C(CO)[C@@H](O)[C@H](O)[C@H](O)CO", "note": "[fructose]", "values": [{"measurement": "reduction of persister viability (killing by gentamicin induced by metabolite)", "setting": "E. coli persisters", "result": "three orders of magnitude"}, {"measurement": "potentiation of gentamicin against ΔndhΔnuoI strain persisters", "setting": "E. coli persisters", "result": "not potentiated"}, {"measurement": "PMF dependence of fructose potentiation in S. aureus", "setting": "S. aureus persisters; gentamicin and fructose, with or without CCCP, 4 h", "result": "requires PMF generation; also recorded: PMF-dependent killing"}]}
{"compound": "O=C(O)[C@H](O)[C@@H](O)[C@H](O)[C@H](O)CO", "note": "[gluconate]", "values": [{"measurement": "potentiation of gentamicin against E. coli persisters by metabolite", "setting": "E. coli persisters", "result": "low potentiation"}]}
{"compound": "O=C[C@@H](O)[C@H](O)[C@H](O)CO", "note": "[arabinose]", "values": [{"measurement": "potentiation of gentamicin against E. coli persisters by metabolite", "setting": "E. coli persisters", "result": "low potentiation"}]}
{"compound": "O=C[C@H](O)[C@H](O)[C@H](O)CO", "note": "[ribose]", "values": [{"measurement": "potentiation of gentamicin against E. coli persisters by metabolite", "setting": "E. coli persisters", "result": "low potentiation"}]}
{"compound": "[H]/N=C(/N)N[C@H]1[C@H](O)[C@@H](O)[C@H](O[C@@H]2O[C@@H](C)[C@](O)(C=O)[C@H]2O[C@@H]2O[C@@H](CO)[C@H](O)[C@@H](O)[C@@H]2NC)[C@@H](N/C(N)=N\\[H])[C@@H]1O", "note": "[streptomycin]", "values": [{"measurement": "killing of E. coli persisters by antibiotic without metabolite", "setting": "E. coli persisters", "result": "no appreciable killing"}, {"measurement": "aminoglycoside activity against E. coli persisters with upper-glycolytic metabolites", "setting": "E. coli persisters; plus glucose, mannitol or fructose, 30 μg/mL kanamycin, 50 μg/mL streptomycin", "result": "greatly enabled"}]}
